Experimental findings from the METLIN SMRT retention time set (Domingo-Almenara et al. 2019) are described below.

The series in a line: gradient 5% acetonitrile 3 min, to 50% in 2 min, to 85% in 15 min, held 3 min, 100 µL/min. The conditions noted are these: column: Zorbax Extend-C18 2.1 x 50 mm; eluents: water / acetonitrile, 0.1% formic acid. The gist of the method: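 Using water and acetonitrile that each contained 0.1% formic acid, mixtures of ~100 pure standards were separated at 100 μL/min on a Zorbax Extend-C18 column (2.1 × 50 mm, 1.8 μm). The HPLC fed a quadrupole time-of-flight mass spectrometer working in positive and negative ionization mode, with dead and dwell volumes of 40 μL and 900 μL. Data were acquired over 3 months. Retention time was read from computationally picked adduct peaks after manual inspection of each.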
The compound `Cc1cccc(C)c1NS(=O)(=O)c1cc2c3c(c1)CCC(=O)N3CCC2` registered an RP-LC retention time of 848 s.
With `CC1(C(=O)NC2CCCCCC2)CN(S(C)(=O)=O)CC(=O)N1c1cccc(F)c1` (stereo not drawn) the figure was 835 s; with `COc1ccc(-c2ncc3c(n2)CCN(S(=O)(=O)c2cccc(F)c2)C3)cc1`, 1060 s; with `CCOC(=O)N1CCN(C(=O)Cc2c(C)nn(-c3nc(-c4ccc(Cl)cc4)cs3)c2C)CC1`, 1110 s.
With `O=C(C1CCN(S(=O)(=O)Cc2ccc(F)cc2)CC1)N1CCCC1` the figure was 735 s; with `CCc1nc2c(c(=O)n1CC(=O)Nc1ccccc1OC)CN(Cc1ccccc1)CC2`, 650 s.
Compound `O=C(Nc1cc(C(F)(F)F)cc(C(F)(F)F)c1)c1ccc(=O)[nH]n1` returned an RP-LC retention time of 814 s.
`CCC(=O)N1CCC(Cc2noc(C3CC3)n2)C1` (stereo not drawn) registered an RP-LC retention time of 671 s.
With `Cc1cccc(C(=O)NC2CCN(c3nnc4ccccn34)CC2)c1` the figure was 645 s; with `O=C(Cn1cnc2c(sc3nc(-c4ccccc4)ccc32)c1=O)Nc1cc(F)cc(F)c1`, 1070 s.
With `CCN(CC)c1nc(C(=O)NCCN2CCOCC2)nc2nc(C)cc(C)c12` the figure was 558 s.
As for `COCC1CN(C)CC12CCN(S(=O)(=O)c1cc(F)ccc1C)CC2` (stereo not drawn), the figure is 661 s; as for `Cc1ccc(C2=NC3(CCN(C(=O)Nc4ccc5c(c4)OCO5)CC3)NC2=O)cc1`, 714 s.
For `O=C(c1cccs1)N1CC(C(=O)N2CCC(O)CC2)C1`, the RP-LC retention time worked out at 566 s.
`CN(C)c1nn(CC(=O)Nc2ccc(Br)cc2)c(=O)c2ccccc12` displayed an RP-LC retention time of 932 s.
The compound `CC(C)NC(=O)N(C1CC1)C1CCOC2(CCN(C(=O)C3CC3)CC2)C1` (stereo not drawn) showed an RP-LC retention time of 688 s.
As for `Cc1c(Cl)cccc1NC(=O)CCc1nc(CSc2nnc(-c3ccccc3)o2)no1`, the RP-LC retention time was 949 s.
On to `O=C(NCc1ccc2c(c1)OCO2)C1COC2(CCN(C(=O)C3CC3)CC2)N1C(=O)c1ccccc1` (stereo not drawn), for which the RP-LC retention time turned out to be 692 s.
As for `Cc1cc2c(c(=O)n(-c3ccc(F)cc3)c(=O)n2CC(=O)Nc2ccc3c(c2)OCO3)n1C`, the figure is 807 s.
Turning to `O=C(Nc1ccc(F)c(Cl)c1)C1CCN(C(=O)C2Sc3ccccc3NC2=O)CC1` (stereo not drawn), the RP-LC retention time worked out at 826 s.
Turning to `Fc1ccc(-c2noc(Cc3nnc(-c4ccc(F)cc4)o3)n2)cc1`, the RP-LC retention time was 991 s.
Turning to `CSc1ccccc1CN1CCC(CNC(=O)C(=O)NCc2cccs2)CC1`, the RP-LC retention time was 595 s.
In turn, `CCOc1ccc(CNC2CCN(c3ccc(C(=O)NC4CC4)cn3)C2)cc1` (stereo not drawn) registered an RP-LC retention time of 578 s.
With `Cn1c(C(=O)N2CCCC(C(=O)NCCc3ccc(S(N)(=O)=O)cc3)C2)cc2sccc21` (stereo not drawn) the figure was 693 s; with `CN(C(=O)C1CCN(S(=O)(=O)c2ccc3c(c2)sc(=O)n3C)CC1)C1CCCCC1`, 910 s.
`CCOc1ccc(-c2noc(CN3N=NC4C(=O)N(c5cccc(F)c5)C(=O)C43)n2)cc1OC` (stereo not drawn) gave an RP-LC retention time of 926 s.
As for `CCN(CC)CCNC(=O)C(C)n1c2ccccc2c2cnn(C)c(=O)c21` (stereo not drawn), the figure is 609 s.
With `CCOC(=O)C1CCN(Cc2nnn(-c3ccccc3)c2C)CC1` the figure was 614 s; with `CCNS(=O)(=O)c1cc(-c2c(CC)noc2NC(C)=O)ccc1OC`, 668 s; with `O=C(c1cccs1)N1CCC(Nc2ncnc3c2CCC3)C1` (stereo not drawn), 547 s.
`CCc1nnc2cc(N3CCN(Cc4ccc(OC(C)C)cc4)CC3)cnn12`: the RP-LC retention time worked out at 545 s.
Consider `COc1cc([C@@H]2c3cc4c(cc3[C@H](O)[C@@H](CO)[C@@H]2C(=O)N2CCN(C)CC2)OCO4)cc(OC)c1OC`, for which the RP-LC retention time is 600 s.
With `CCC(=O)N1CCc2sc(C(=O)NCc3ccccn3)cc2C1` the figure was 577 s; with `Cn1cc(-c2cc3n(n2)CCCN3C(=O)CCC(=O)N2CCCCCC2)c2ccccc21`, 837 s.
Compound `CNC(=O)[C@@H]1C[C@H](Oc2ccccc2)CN1C(=O)c1ccoc1` returned an RP-LC retention time of 666 s.
With `Cc1ccc(C)c(C(=O)NCCc2nc3cccnc3n2C(C)C)c1` the figure was 705 s; with `O=C(NC1CC1)[C@@H]1C[C@H](Oc2cccnc2)CN1C(=O)c1ccsc1`, 630 s; with `Cc1ccc(NC(=O)N2CCC(CC(=O)N3CCCCC3)CC2)cc1C`, 793 s.
Turning to `Cc1nc(-c2ccccc2)nc2c1CC(=O)N2Cc1cccnc1`, the RP-LC retention time turned out to be 616 s.
For `COc1ccc(CC(=O)N2CCN(c3ccc(-c4nc(C)cs4)cn3)CC2)cc1OC`, the RP-LC retention time was found to be 788 s.
In turn, `CCCCOc1ccc(NC(=O)N(Cc2ccccn2)Cc2ccco2)cc1` showed an RP-LC retention time of 788 s.
Consider `CCCCc1ccc(NC(=O)Cn2nc3cc(C)nc(-c4ccc(Cl)cc4)n3c2=O)cc1`, for which the RP-LC retention time was determined as 1200 s.
With `Cc1ccc(OCC(=O)N(Cc2ccc(Br)o2)C2CCS(=O)(=O)C2)cc1C` (stereo not drawn) the figure was 996 s; with `CCN(CC)S(=O)(=O)c1cc(-c2nnc(-c3ccccc3OC)o2)ccc1Cl`, 1090 s; with `O=C(Cc1cccc2ccccc12)Nc1cc(-c2ccccn2)no1`, 878 s.
In turn, `COc1ccc(NC(=O)N2CCCn3nc(-c4cccc(Cl)c4)cc3C2)cc1F` had an RP-LC retention time of 945 s.
Compound `O=C(NC1CCCC1)N1CCN(c2nc3cccnc3n(Cc3ccccc3)c2=O)CC1` registered an RP-LC retention time of 1030 s.
With `CS(=O)(=O)N1CCN(C(=O)CCCn2nc(-c3ccc(F)cc3)ccc2=O)CC1` the figure was 652 s; with `Cc1nc(Nc2ccc(Br)cn2)sc1C(=O)N1CCN(C(C)C)CC1`, 630 s.
As for `COc1ccccc1N1CCN(c2cc(SCC(=O)NCc3ccc4c(c3)OCO4)ncn2)CC1`, the figure is 840 s.
`CCc1noc(-c2cnc3nc(C)ccc3c2NCCc2ccccc2)n1` showed an RP-LC retention time of 621 s.
As for `COc1ccc(NC(=O)NCC23CCCC=C2NC(=O)CC3)cc1` (stereo not drawn), the figure is 593 s; as for `CC1(C(=O)NC2CCCC2)Cn2cnc(C(=O)NCc3ccccc3F)c2C(=O)N1C1CC1` (stereo not drawn), 778 s; as for `Cc1ccc(-c2[nH]ncc2CN2CCC3(CC2)CC(O)CCO3)cc1` (stereo not drawn), 588 s.
`CC(C)c1noc(-c2cc(=O)n(CC(=O)Nc3ccc(F)c(F)c3)c3ccccc23)n1` came in with an RP-LC retention time of 1040 s.
Take `Cc1cc(S(=O)(=O)N2C[C@H](F)C[C@@H]2C(=O)N2CCOCC2)ccc1Cl`: the RP-LC retention time turned out to be 753 s.
As for `COc1cc(NC(=O)NC2CCN(c3ccccc3)C2=O)cc(OC)c1` (stereo not drawn), the figure is 768 s.
Regarding `CC(C)NC(=O)C1CCN(C(=O)c2ncn3c2COC(c2ccc(Cl)cc2)C3)CC1` (stereo not drawn), the RP-LC retention time is 679 s.
Turning to `CC1CCN(S(=O)(=O)c2ccc3nn(CCc4ccccc4)c(=O)n3c2)CC1`, the RP-LC retention time was determined as 1020 s.
With `COCc1nnc(NS(=O)(=O)c2ccc([N+](=O)[O-])cc2)s1` the figure was 702 s.
The compound `CC(C)(C)c1nnc(NC(=O)C2CC(=O)N(CCc3c[nH]c4ccc(F)cc34)C2)s1` (stereo not drawn) showed an RP-LC retention time of 782 s.
On to `Cc1ccc(CCC(=O)Nc2nc(-c3ccc4c(c3)NC(=O)C(C)O4)c(C)s2)cc1` (stereo not drawn), for which the RP-LC retention time worked out at 1010 s.
Compound `COc1ccc(Cl)cc1NC(=O)N1CCCC(C)(C(=O)NCc2ccc(F)cc2)C1` (stereo not drawn) came in with an RP-LC retention time of 1020 s.
As for `Cc1noc(C)c1CCC(=O)N1CCN(c2c(C)nn(C3CCS(=O)(=O)C3)c2C)CC1` (stereo not drawn), the figure is 650 s; as for `NS(=O)(=O)c1ccc(CCNS(=O)(=O)c2ccc(-c3cc(C(F)(F)F)on3)o2)cc1`, 874 s.
`COCCN1CCn2cc(S(=O)(=O)Nc3ccc(F)cc3Cl)cc2C1=O` had an RP-LC retention time of 725 s.
`O=C(NCC(=O)N1CCN(c2ccccn2)CC1)c1ccc(OC(F)(F)F)cc1` displayed an RP-LC retention time of 635 s.
With `CN(C)c1cccc(-c2nc(-c3ccc4nnn(C)c4c3)no2)c1` the figure was 1070 s.
`Cn1c(C2CCN(C(=O)Nc3ccc(Cl)cc3)CC2)cc(=O)n2nccc12` registered an RP-LC retention time of 676 s.
As for `Cc1cc2c(cc1S(=O)(=O)N1CCCC1C(=O)Nc1ccc(Cl)cc1F)OC(C)C(=O)N2` (stereo not drawn), the figure is 884 s; as for `CCN(CC)C(=O)N1CCCN(S(C)(=O)=O)C(c2ccccc2)CC(=O)NCC1` (stereo not drawn), 700 s.
As for `Cc1ccc2c(c1)C(C)(C)C(=O)N2CC(=O)NCc1ccc(F)cc1`, the figure is 915 s.
As for `CCN(C(=O)C1CCCN1S(=O)(=O)c1cc2c(cc1C)NC(=O)CO2)c1ccc(OC)cc1` (stereo not drawn), the figure is 782 s; as for `CCN(CC)C(=O)c1ccc2c(c1)N(CC(=O)NCCN1CCN(C)CC1)C(=O)CO2`, 567 s.
Turning to `Cn1ncc2c(N3CCOCC3)nc(C(=O)NCCc3cccs3)nc21`, the RP-LC retention time stood at 710 s.
With `COc1cccc(-c2nc(-c3cn(Cc4ccc(F)cc4)nn3)no2)c1`, the RP-LC retention time came to 983 s.
As for `CNC(=O)c1oc2ccccc2c1NC(=O)C1CCC1`, the figure is 803 s; as for `Cc1cc([N+](=O)[O-])nn1CC(=O)Nc1c(F)cc(F)cc1Br`, 762 s.
